# Measurements: patent US8247211B2, “Glycopeptide antibiotics” (American Cyanamid Company, priority 2001, dated 2012)
# Tests used:
# [1] = tested on: Staphylococcus aureus-SMITH (GC 4543); test: Acute lethal infection in mice (ED50); format: in vivo; conditions: female CD-1 mice, intraperitoneal challenge, intravenous dose 30 min. after infection, 7 day survival ratios
# In short: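 Median effective dose is calculated from 7-day survival ratios pooled across three separate tests. Mice (female CD-1) receive an intraperitoneal bacterial challenge in broth or hog gastric mucin, then intravenous drug 30 min later, five animals per dose level.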
# Escherichia coli [2] = test: In vitro antibacterial evaluation: minimum inhibitory concentration (MIC), broth dilution method; format: cell-based
# Enterococcus sp. = test: as above; format: cell-based
# In short: (§1)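 Using Muller-Hinton II […] and an inoculum of 5×10^5 CFU/mL, antibiotic dilutions from 64 down to 0.06 μg/mL were tested following NCCLS M7-A2. The MIC is the lowest concentration inhibiting growth, including in methicillin-, penicillin- or vancomycin-resistant clinical isolates.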
# Escherichia coli [3] = test: as above; format: cell-based; remark: listed apart in the source
# In short: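 First, organisms are seeded at 5×10^5 CFU/mL into Muller-Hinton II […]. Next, antibiotic is applied across 64-0.06 μg/mL by broth dilution (NCCLS M7-A2). Finally, the lowest inhibitory concentration is recorded as MIC.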
# Staphylococcus sp. = test: as above; format: cell-based; conditions: 18 hours at 35° C.
# In short: as §1
# [4] = Anatomic pathology (heart and kidney histopathology) in mice; format: in vivo, CD-1 mice; conditions: 20 mg/kg intravenously daily for 9 days, microscopic histopathology on day 10
# In short: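 Juvenile CD-1 mice (20 days old; 5 vehicle, 5 treated) received glycopeptide antibiotic 20 mg/kg i.v. daily for 9 days. Necropsied tissues formalin-fixed, paraffin-embedded, H&E stained and examined microscopically; findings graded slight to severe versus controls.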
# Streptococcus sp. = test: In vitro antibacterial evaluation: minimum inhibitory concentration (MIC), broth dilution method; format: cell-based; conditions: broth dilution, 18 hours at 35° C.
# In short: as §1
compound,measurement,setting,value
CC(C)CC(=O)OC1C(OC2C(CO)OC(Oc3ccc(CC4NC(=O)C(C(C)c5ccccc5)NC(=O)CNC(=O)C(CO)NC(=O)C(CC5CNC(=N)N5C5OC(CO)C(O)C(O)C5O)NC(=O)C(CC5CNC(=N)N5)NC4=O)cc3)C(O)C2O)OC(CO)C(O)C1O (centres unmarked) [Example 277b],"median effective dose (ED50), Staphylococcus aureus-SMITH (GC 4543)",[1],>8
same,MIC Escherichia coli (ATCC 25922),Escherichia coli [2],>64 µg/mL
same,MIC Enterococcus avium (GC 4558),Enterococcus sp.,>64 µg/mL
same,MIC Enterococcus faecalis (ATCC 29212),Enterococcus sp.,>64 µg/mL
same,MIC Enterococcus faecalis (GC 4553),Enterococcus sp.,>64 µg/mL
same,MIC Enterococcus faecalis (GC 4554),Enterococcus sp.,>64 µg/mL
same,MIC Enterococcus faecalis (GC 6189),Enterococcus sp.; Enterococcus faecalis (GC 6189),>64 µg/mL
same,MIC Enterococcus faecium (GC 2243),Enterococcus sp.,>64 µg/mL
same,MIC Enterococcus faecium (GC 4556),Enterococcus sp.,>64 µg/mL
same,MIC Enterococcus faecium (GC 4557),Enterococcus sp.,>64 µg/mL
same,MIC Escherichia coli (GC 4559),Escherichia coli [3],>64 µg/mL
same,MIC Escherichia coli (GC 4560),Escherichia coli [3],32 µg/mL
same,MIC Coagulase Negative Staphylococcus (GC 4547),Staphylococcus sp.,>64 µg/mL
same,MIC Coagulase Negative Staphylococcus (GC 4547),Staphylococcus sp.; broth dilution,>64 µg/mL
same,MIC Coagulase Negative Staphylococcus (GC 4548),Staphylococcus sp.,>64 µg/mL
same,MIC Coagulase Negative Staphylococcus (GC 4548),Staphylococcus sp.; broth dilution,>64 µg/mL
same,MIC Coagulase Negative Staphylococcus (GC 4549),Staphylococcus sp.,>64 µg/mL
same,MIC Coagulase Negative Staphylococcus (GC 4549),Staphylococcus sp.; broth dilution,>64 µg/mL
same,MIC Coagulase Negative Staphylococcus (GC 4551),Staphylococcus sp.,>64 µg/mL
same,MIC Coagulase Negative Staphylococcus (GC 4551),Staphylococcus sp.; broth dilution,>64 µg/mL
same,MIC Coagulase Negative Staphylococcus (GC 6257),Staphylococcus sp.,>64 µg/mL
same,MIC Coagulase Negative Staphylococcus (GC 6257),Staphylococcus sp.; broth dilution,>64 µg/mL
same,MIC Staphylococcus aureus (ATCC 29213),Staphylococcus sp.,>64 µg/mL
same,MIC Staphylococcus aureus (ATCC 29213),Staphylococcus sp.; broth dilution,>64 µg/mL
same,MIC Staphylococcus aureus (GC 1131),Staphylococcus sp.,>64 µg/mL
same,MIC Staphylococcus aureus (GC 1131),Staphylococcus sp.; broth dilution,>64 µg/mL
same,MIC Staphylococcus aureus (GC 3051),Staphylococcus sp.,>64 µg/mL
same,MIC Staphylococcus aureus (GC 3051),Staphylococcus sp.; broth dilution,>64 µg/mL
same,MIC Staphylococcus aureus (GC 3053),Staphylococcus sp.,>64 µg/mL
same,MIC Staphylococcus aureus (GC 3053),Staphylococcus sp.; broth dilution,>64 µg/mL
same,MIC Staphylococcus aureus (GC 4541),Staphylococcus sp.,>64 µg/mL
same,MIC Staphylococcus aureus (GC 4541),Staphylococcus sp.; broth dilution,>64 µg/mL
same,MIC Staphylococcus aureus (GC 4542),Staphylococcus sp.,>64 µg/mL
same,MIC Staphylococcus aureus (GC 4542),Staphylococcus sp.; broth dilution,>64 µg/mL
same,MIC Staphylococcus aureus (GC 4544),Staphylococcus sp.,>64 µg/mL
same,MIC Staphylococcus aureus (GC 4544),Staphylococcus sp.; broth dilution,>64 µg/mL
same,MIC Staphylococcus aureus (GC 4545),Staphylococcus sp.,>64 µg/mL
same,MIC Staphylococcus aureus (GC 4545),Staphylococcus sp.; broth dilution,>64 µg/mL
same,MIC Staphylococcus aureus-SMITH (GC 4543),Staphylococcus sp.,>64 µg/mL
same,MIC Staphylococcus aureus-SMITH (GC 4543),Staphylococcus sp.; broth dilution,>64 µg/mL
same,MIC Staphylococcus haemolyticus (GC 4546),Staphylococcus sp.,>64 µg/mL
same,MIC Staphylococcus haemolyticus (GC 4546),Staphylococcus sp.; broth dilution,>64 µg/mL
same,"Anatomical Pathology (Day 10), Heart",[4],0
same,"Anatomical Pathology (Day 10), Kidney",[4],+
"CC(C)CC(=O)OC1C(OC2C(CO)OC(Oc3ccc(CC4NC(=O)C(C(C)c5cccs5)NC(=O)CNC(=O)C(CO)NC(=O)C(C(O)C5CNC(=N)N5C5OC(CO)C(O)C(O)C5O)NC(=O)C(C(O)C5CNC(=N)N5)NC4=O)cc3)C(O)C2O)OC(CO)C(O)C1O (centres unmarked) [Example 265a, Cyclo[3-(2-thienyl)-2-aminobutanoyl-O-[4-O-[2-O-(3-methylbutanoyl)hexopyranosyl]hexopyranosyl]tyrosyl-3-(2-iminoimidazolidin-4-yl)seryl-3-(3-hexopyranosyl-2-iminoimidazolidin-4-yl)serylserylglycyl]]",MIC Escherichia coli (ATCC 25922),Escherichia coli [2],>64 µg/mL
same,MIC Enterococcus avium (GC 4558),Enterococcus sp.,64 µg/mL
same,MIC Enterococcus faecalis (ATCC 29212),Enterococcus sp.,64 µg/mL
same,MIC Enterococcus faecalis (GC 4553),Enterococcus sp.,>64 µg/mL
same,MIC Enterococcus faecalis (GC 4554),Enterococcus sp.,>64 µg/mL
same,MIC Enterococcus faecium (GC 2243),Enterococcus sp.,>64 µg/mL
same,MIC Enterococcus faecium (GC 4556),Enterococcus sp.,64 µg/mL
same,MIC Enterococcus faecium (GC 4557),Enterococcus sp.,8 µg/mL
same,MIC Escherichia coli (GC 4559),Escherichia coli [3],>64 µg/mL
same,MIC Escherichia coli (GC 4560),Escherichia coli [3],4 µg/mL
same,MIC Streptococcus pyogenes (GC 4563),Streptococcus sp.; strain GC 4563,4 µg/mL
same,MIC Streptococcus pyogenes (ID-3187),Streptococcus sp.; strain ID-3187,64 µg/mL
same,MIC Coagulase Negative Staphylococcus (GC 4547),Staphylococcus sp.,8 µg/mL
same,MIC Coagulase Negative Staphylococcus (GC 4547),Staphylococcus sp.; broth dilution,8 µg/mL
same,MIC Coagulase Negative Staphylococcus (GC 4548),Staphylococcus sp.,8 µg/mL
same,MIC Coagulase Negative Staphylococcus (GC 4548),Staphylococcus sp.; broth dilution,8 µg/mL
same,MIC Coagulase Negative Staphylococcus (GC 4549),Staphylococcus sp.,4 µg/mL
same,MIC Coagulase Negative Staphylococcus (GC 4549),Staphylococcus sp.; broth dilution,4 µg/mL
same,MIC Coagulase Negative Staphylococcus (GC 4551),Staphylococcus sp.,8 µg/mL
same,MIC Coagulase Negative Staphylococcus (GC 4551),Staphylococcus sp.; broth dilution,8 µg/mL
same,MIC Staphylococcus aureus (ATCC 29213),Staphylococcus sp.,16 µg/mL
same,MIC Staphylococcus aureus (ATCC 29213),Staphylococcus sp.; broth dilution,16 µg/mL
same,MIC Staphylococcus aureus (GC 1131),Staphylococcus sp.,32 µg/mL
same,MIC Staphylococcus aureus (GC 1131),Staphylococcus sp.; broth dilution,32 µg/mL
same,MIC Staphylococcus aureus (GC 4541),Staphylococcus sp.,16 µg/mL
same,MIC Staphylococcus aureus (GC 4541),Staphylococcus sp.; broth dilution,16 µg/mL
same,MIC Staphylococcus aureus (GC 4542),Staphylococcus sp.,16 µg/mL
same,MIC Staphylococcus aureus (GC 4542),Staphylococcus sp.; broth dilution,16 µg/mL
same,MIC Staphylococcus aureus (GC 4544),Staphylococcus sp.,8 µg/mL
same,MIC Staphylococcus aureus (GC 4544),Staphylococcus sp.; broth dilution,8 µg/mL
same,MIC Staphylococcus aureus (GC 4545),Staphylococcus sp.,16 µg/mL
same,MIC Staphylococcus aureus (GC 4545),Staphylococcus sp.; broth dilution,16 µg/mL
same,MIC Staphylococcus aureus-SMITH (GC 4543),Staphylococcus sp.,8 µg/mL
same,MIC Staphylococcus aureus-SMITH (GC 4543),Staphylococcus sp.; broth dilution,8 µg/mL
same,MIC Staphylococcus haemolyticus (GC 4546),Staphylococcus sp.,8 µg/mL
same,MIC Staphylococcus haemolyticus (GC 4546),Staphylococcus sp.; broth dilution,8 µg/mL
